14 compounds from ChEMBL document CHEMBL1122049, “Synthesis and in vitro antimicrobial activity of 5-substituted 2H-1,3,5-thiadiazine-2,4(3H)-diones” (1982) can be followed below.

In brackets after ≈: the same amount, converted by molar mass.

The test system of one assay is Candida albicans. Nature of the assay: Minimum inhibitory concentration against Candida albicans in Sabouraud dextrose broth by using […]. In kind it is functional.
Another assay deals with Trichophyton benhamiae. In words: Minimum inhibitory concentration against Trichophyton mentagrophytes in Sabouraud dextrose broth by using […]. Format: functional, Arthroderma benhamiae.

Broadly, the MIC is the smallest concentration in the dilution series that meets the test's criterion for growth inhibition. A high value points to weaker potency. Take `O=c1nc(Cc2cccnc2)sc(=O)[nH]1`: the MIC in the assay with Candida albicans was 62 mg/L (≈ 280 µM); against Trichophyton benhamiae, 8 mg/L (≈ 36.2 µM).

As to `O=c1nc(-c2cccs2)sc(=O)[nH]1`, the MIC in the assay on Candida albicans is 62 mg/L (≈ 292 µM); in the assay on Trichophyton benhamiae it was 2 mg/L (≈ 9.42 µM).

With `CN(C)c1ccc(-c2nc(=O)[nH]c(=O)s2)cc1`, the MIC with Candida albicans is greater than 125 mg/L; against Trichophyton benhamiae, 62 mg/L (≈ 249 µM).

On to `COc1ccc(-c2nc(=O)[nH]c(=O)s2)cc1`, for which the minimal inhibitory concentration (MIC) was 125 mg/L (≈ 529 µM) against Candida albicans and 8 mg/L (≈ 33.9 µM) against Trichophyton benhamiae.

Regarding `O=c1nc(Cc2ccc3c(c2)OCO3)sc(=O)[nH]1`, the MIC turned out to be 125 mg/L (≈ 473 µM) with Candida albicans and 4 mg/L (≈ 15.1 µM) in the assay on Trichophyton benhamiae.

As to `Oc1c(I)cc(Cl)c2cccnc12` [CLIOQUINOL], the minimum inhibitory concentration (MIC) in the assay with Candida albicans is 1 mg/L (≈ 3.27 µM); against Trichophyton benhamiae, 4 mg/L (≈ 13.1 µM).

In the case of `O=c1nc(-c2ccc3c(c2)OCO3)sc(=O)[nH]1`, the figures for the MIC in the assay with Candida albicans and in the assay with Trichophyton benhamiae were greater than 250 mg/L and 125 mg/L (≈ 500 µM), respectively.

Turning to `O=c1nc(-c2ccccc2)sc(=O)[nH]1`, the MIC against Candida albicans was 8 mg/L (≈ 38.8 µM); against Trichophyton benhamiae, less than 2 mg/L.

With `O=c1nc(-c2ccco2)sc(=O)[nH]1`, the minimum inhibitory concentration (MIC) in the assay with Candida albicans is 15 mg/L (≈ 76.5 µM); with Trichophyton benhamiae, less than 2 mg/L.

Regarding `O=c1nc(Cc2ccccc2)sc(=O)[nH]1`, the MIC in the assay on Candida albicans was 125 mg/L (≈ 568 µM); with Trichophyton benhamiae, less than 2 mg/L.

With `CC(C)c1nc(=O)[nH]c(=O)s1`, the values for the MIC against Candida albicans and against Trichophyton benhamiae were 81 mg/L (≈ 470 µM) and 15 mg/L (≈ 87.1 µM), respectively.

On to `Cc1ccc(-c2nc(=O)[nH]c(=O)s2)cc1`, for which the MIC was greater than 250 mg/L against Candida albicans and less than 2 mg/L with Trichophyton benhamiae.

Take `O=c1nc(-c2ccc(Cl)cc2)sc(=O)[nH]1`: the minimal inhibitory concentration (MIC) was 15 mg/L (≈ 62.3 µM) against Candida albicans and 4 mg/L (≈ 16.6 µM) in the assay on Trichophyton benhamiae.

In the case of `CC(=O)c1ccc(-c2nc(=O)[nH]c(=O)s2)cc1`, the minimal inhibitory concentration (MIC) in the assay on Candida albicans was 31 mg/L (≈ 125 µM); against Trichophyton benhamiae, less than 2 mg/L.
